In patent EP2890687B1, “SALTS OF BENZOTHIAZOLONE COMPOUND AS BETA-2-ADRENOCEPTOR AGONIST” (priority 2012, dated 2014):
≈ marks a conversion by molar mass, not a printed value. Like-named read-outs stand apart in the source and are kept apart here.

Key:
Serotonin 5-HT2C = target: T1, Serotonin 5-HT2C (Homo sapiens, UniProt P28335); assay: Aequorin agonist assay in CHO-K1 cells expressing recombinant Serotonin 5-HT2Cne and Gα16; type: cell-based; conditions: for Emax: CHO-K1, percentage of the activity of the reference agonist at its EC100
T1 construct: expressed in transfected cells; host or cells: CHO-K1 coexpressing mitochondrial apoaequorin and Gα16
T1 sequence (P28335 33-458): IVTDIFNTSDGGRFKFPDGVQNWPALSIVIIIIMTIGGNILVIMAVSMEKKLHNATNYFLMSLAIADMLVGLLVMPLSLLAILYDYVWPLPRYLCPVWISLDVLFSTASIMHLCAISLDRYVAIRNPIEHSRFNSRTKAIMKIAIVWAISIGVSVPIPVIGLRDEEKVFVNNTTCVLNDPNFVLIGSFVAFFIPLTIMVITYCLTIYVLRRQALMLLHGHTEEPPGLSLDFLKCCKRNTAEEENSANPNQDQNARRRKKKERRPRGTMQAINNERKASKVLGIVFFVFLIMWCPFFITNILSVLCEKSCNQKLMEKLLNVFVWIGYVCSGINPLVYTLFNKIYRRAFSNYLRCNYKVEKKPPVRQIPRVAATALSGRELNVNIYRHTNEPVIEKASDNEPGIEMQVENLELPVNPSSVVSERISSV

human 5-HT2C receptor = target: T2, human 5-HT2C receptor (Homo sapiens, UniProt P28335); assay: 3H-Mesulergine binding to hr5-HT2C CHO cell membranes; conditions: 3H-Mesulergine 1 nM, kind of constant not stated
T2 construct: purchased Biosignal Packard, USA; host or cells: CHO cell membranes
T2 sequence (P28335 33-458): T1 sequence (P28335 33-458)
Experimental: Non-specific binding is evaluated in the presence of 1 µM Mesulergine. Fifty µL each of membrane, ligand and compound in a total volume of 250 µL are incubated in 96-well plates for 60 min at 22° C in a buffer containing 50 mM Tris, 0.1% ascorbic acid, 10 µM Pargyline, pH 7.7. The plates are filtrated, washed 3 times in ice-cold 50 mM Tris, dred and measured in Topcount.

Human skMC = assay: cAMP response in primary human skeletal muscle cells (differentiated skeletal myotubes); conditions: read-out: Primary cells; for EC50: cAMP response EC50 Human skMC, differentiated skeletal myotubes; for Emax: cAMP response Emax % Human skMC
β2 AR = β2 AR (Homo sapiens, UniProt P07550); assay: cAMP functional assay in CHO cells stably transfected with human β2 adrenoceptor (Test 1); conditions: for Emax: CHO, read-out: CHO cells Emax % β2 AR, cAMP, compared to isoprenaline; for EC50: CHO cells EC50 β2 AR, cAMP, CHO cells stably transfected with human β2 adrenoceptor
Sequence of β2 AR (P07550 whole entry): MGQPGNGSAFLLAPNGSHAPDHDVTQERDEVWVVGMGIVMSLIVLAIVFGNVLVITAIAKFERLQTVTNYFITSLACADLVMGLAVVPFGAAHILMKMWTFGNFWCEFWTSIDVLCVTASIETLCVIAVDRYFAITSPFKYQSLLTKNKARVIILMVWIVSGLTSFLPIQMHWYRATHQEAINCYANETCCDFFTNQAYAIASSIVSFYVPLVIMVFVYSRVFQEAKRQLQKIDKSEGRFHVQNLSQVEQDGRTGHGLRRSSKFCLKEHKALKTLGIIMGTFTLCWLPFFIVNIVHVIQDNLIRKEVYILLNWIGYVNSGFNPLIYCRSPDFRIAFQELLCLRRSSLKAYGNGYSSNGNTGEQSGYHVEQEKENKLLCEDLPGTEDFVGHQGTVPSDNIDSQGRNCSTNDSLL

β1 AR = β1 AR (Homo sapiens, UniProt P08588); assay: cAMP functional assay in CHO cells stably transfected with human β1 adrenoceptor (Test 1); conditions: for Emax: CHO, read-out: CHO cells Emax % β1 AR
Sequence of β1 AR (P08588 whole entry): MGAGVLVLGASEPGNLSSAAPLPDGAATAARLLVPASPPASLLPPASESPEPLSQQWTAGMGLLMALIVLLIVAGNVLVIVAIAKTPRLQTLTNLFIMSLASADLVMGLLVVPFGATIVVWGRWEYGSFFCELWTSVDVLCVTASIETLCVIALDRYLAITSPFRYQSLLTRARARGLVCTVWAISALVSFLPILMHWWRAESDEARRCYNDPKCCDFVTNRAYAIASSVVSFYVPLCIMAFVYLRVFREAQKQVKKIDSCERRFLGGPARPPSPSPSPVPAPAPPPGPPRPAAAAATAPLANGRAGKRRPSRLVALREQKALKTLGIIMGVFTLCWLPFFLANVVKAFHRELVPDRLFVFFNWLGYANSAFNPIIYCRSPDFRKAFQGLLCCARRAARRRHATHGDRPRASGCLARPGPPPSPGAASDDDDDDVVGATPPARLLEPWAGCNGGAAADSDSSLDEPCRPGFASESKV

α1A AR = target: T3, α1A AR (Homo sapiens, UniProt P35348); assay: Ca2+ FLIPR assay in human adrenergic Alpha1A CHO-K1 cell line (Test 1); type: cell-based; conditions: summary in words
T3 construct: host or cells: CHO-K1
T3 sequence (P35348 1-466): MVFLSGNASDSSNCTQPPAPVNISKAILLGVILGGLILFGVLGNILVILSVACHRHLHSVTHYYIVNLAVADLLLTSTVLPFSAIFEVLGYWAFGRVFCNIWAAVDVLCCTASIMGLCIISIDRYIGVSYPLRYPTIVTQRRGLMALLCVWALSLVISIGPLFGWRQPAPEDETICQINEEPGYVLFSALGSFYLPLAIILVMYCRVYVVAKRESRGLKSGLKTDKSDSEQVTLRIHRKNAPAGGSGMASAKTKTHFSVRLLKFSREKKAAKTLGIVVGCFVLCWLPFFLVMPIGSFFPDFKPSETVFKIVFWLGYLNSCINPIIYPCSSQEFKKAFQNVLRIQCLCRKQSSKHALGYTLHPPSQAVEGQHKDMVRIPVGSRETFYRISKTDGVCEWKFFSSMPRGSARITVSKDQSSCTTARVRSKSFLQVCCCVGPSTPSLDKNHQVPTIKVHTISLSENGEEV

Sino-Atrial node = Sino-Atrial node beating rate in isolated rabbit right atrium; parameters: species or system New Zealand white female rabbits; conditions: n=6
rats = assay: Heart rate in rats after s.c. bolus; type: in vivo, Wistar Han (W-H) IGS rats; conditions: up to 0.3 mg/kg, Figures 3a-3c
Text: Wistar Han (W-H) IGS (International Genetic Standard) rats (Crl:WI(Han)) were purchased from Charles River Laboratories. Femoral arterial and venous catheters were chronically implanted and exteriorized through a spring tether-swivel system and housed in specialized cages. Arterial catheter was connected to a pressure transducer to continuously measure pulse pressure, mean arterial pressure and heart rate, which was derived from the blood pressure signal, via a digital data acquisition system. Compounds were administered via s.c catheter implanted through the skin buttun. Values are expressed as means ± SEM (n=3).

[1] = Comparative solubility in H2O with pH adjustment by HCl or NaOH; type: physicochemical; conditions: water, read-out: solubility in H2O, Conc
Experimental: The relative solubilities of the free base form and the acetate and glycolate salt forms of Compound A were analysed and the results are show in the table below. Solutions were titrated with addition of HCl or NaOH for pH adjustment. The improved aqueous solubilities of the acetate and glycolate salt forms relative to the free base form of Compound A make the acetate and glycolate salts of Compound A more suitable for subcutaneous injection or infusion.

Rat cardiomyocytes = assay: cAMP response in primary rat cardiomyocytes; conditions: Cardiomyocyte
[2] = test system: isolated Langendorff perfused rabbit hearts; assay: Automaticity in isolated Langendorff perfused rabbit hearts
[3] = Steady state plasma concentration in the rat minipump study; type: in vivo, Male Wistar Han IGS rats; conditions: rats
Experimental: Rats were acclimated to the facility for 7 days. […] Food and water were provided ad libitum. […] Body weights were measured twice per week. […] Brain weight was used for normalization of organ weights. Results are expressed as mean +/-SEM.

Adrenergic beta1 = Adrenergic beta1 (Cavia porcellus, UniProt H0W3H1); assay: Left atrium contraction assay (Ricerca, Adrenergic beta1); parameters: species or system Dunkin Hartley Guinea pig
Sequence of Adrenergic beta1 (H0W3H1 1-470): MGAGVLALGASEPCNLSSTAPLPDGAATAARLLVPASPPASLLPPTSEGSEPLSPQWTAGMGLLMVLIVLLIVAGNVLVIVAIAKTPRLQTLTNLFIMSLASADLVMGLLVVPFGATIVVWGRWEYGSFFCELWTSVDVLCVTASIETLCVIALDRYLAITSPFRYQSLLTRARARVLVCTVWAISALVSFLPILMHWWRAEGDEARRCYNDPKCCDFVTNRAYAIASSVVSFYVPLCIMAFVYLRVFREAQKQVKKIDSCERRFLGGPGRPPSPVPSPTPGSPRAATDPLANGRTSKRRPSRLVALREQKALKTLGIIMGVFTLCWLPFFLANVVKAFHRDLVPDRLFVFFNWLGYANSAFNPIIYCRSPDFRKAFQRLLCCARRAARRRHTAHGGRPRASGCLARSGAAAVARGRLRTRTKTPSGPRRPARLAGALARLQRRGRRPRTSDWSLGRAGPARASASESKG

[4] = test system: skeletal muscle and heart; conditions: rats
Rhesus monkeys = assay: Heart rate in rhesus monkeys after single s.c. administration; type: in vivo; conditions: s.c. bolus, up to 0.03 mg/kg, Figures 4a, 4b
Experimental: Rhesus monkeys, 24 females with body weight around 4 to 8 kg, were randomized into 4 groups of n=6. The animals were restrained on a chair up to 4 hours after single subcutaneous administration of compounds, and then returned to their pens. Heart rates were measured using a Surgivet V3304 device. Values are expressed as means ± SEM (n=6).

Rat skMC = assay: cAMP response in primary rat skeletal muscle cells
[5] = Homo sapiens, Myotube, compared to formoterol

With `CCCCOc1ccc(CC(C)(C)NC[C@@H](O)c2cc(O)cc3[nH]c(=O)sc23)cc1` [Compound B] the Emax (Serotonin 5-HT2C) was 99%, the “Serotonin 5-HT2C Binding” value (human 5-HT2C receptor) was 0.8 µM and the EC50 (Human skMC; Homo sapiens, Myotube) was 280 nM. It also gave an Emax (Human skMC; [5]) of 100% and an Emax (β2 AR) of 83%.
With `CCCCOc1ccc(CC(C)(C)NCC(O)c2cc(O)cc3[nH]c(=O)sc23)cc1` (racemic) [Compound A/B] the Emax (Serotonin 5-HT2C) was 113%, the “Serotonin 5-HT2C Binding” value (human 5-HT2C receptor) was 1.7 µM and the EC50 (Human skMC; Homo sapiens, Myotube) was 0.63 nM. The Emax (Human skMC; [5]) was 100%, the Emax (β2 AR) was 87% and the Emax (β1 AR) was 38%.
With `CCCCOc1ccc(CC(C)(C)NC[C@H](O)c2cc(O)cc3[nH]c(=O)sc23)cc1` [Compound A, (R)-7-(2-(1-(4-butoxyphenyl)-2-methylpropan-2-ylamino)-1-hydroxyethyl)-5-hydroxybenzo[d]thiazol-2(3H)-one] the “fold less active on 5-HT2C compared to the racemate or the (S) enantiomer” value (Serotonin 5-HT2C) was “over 10 fold”, the “fold less active on 5-HT2C compared to β2 AR agonist activity” value (Serotonin 5-HT2C; 5-HT2C EC50 versus β2 AR EC50 (5.6 nM)) was 50 fold and the Emax (Serotonin 5-HT2C) was 83%. For the same compound, the EC50 (Serotonin 5-HT2C; agonist mode, aequorin luminescence) was 280 nM, the “activity on α1A AR” value (α1A AR) was “no activity” and the “Sino-Atrial node beating rate, maximum increase” value (Sino-Atrial node) was “+6.2%”. For the same compound, the heart rate change (rats) was “less heart rate increases compared to formoterol”, the solubility ([1]; aqueous buffer, pH 7.0) was 50 µg/mL (≈ 116 µM) and the solubility ([1]; pH 6.2, aqueous buffer) was 270 µg/mL (≈ 627 µM). It also gave a solubility ([1]; pH 7.3, aqueous buffer) of less than 10 µg/mL, a solubility ([1]; pH 7.8, aqueous buffer) of less than 10 µg/mL and an EC50 (Rat cardiomyocytes; read-out: Primary cells, cAMP response EC50 Rat cardiomyocytes) of 5.7 nM. The Emax (Rat cardiomyocytes; read-out: Primary cells, cAMP response Emax % Rat cardiomyocytes) was 71%, the “effects on the pacemaker activity” value ([2]; compared to Formoterol, Figures 2a, 2b) was “less direct effects” and the “Automaticity, maximum increase” value ([2]; isolated rabbit heart, n=3) was “+17%”. For the same compound, the “steady state plasma concentration” value ([3]; 0.01 mg/kg/day s.c. minipump) was ~ 0.2 nM, the steady state concentration ([3]; 0.1 mg/kg/day s.c. minipump) was ~ 2 nM and the “Serotonin 5-HT2C Binding” value (human 5-HT2C receptor) was 11 µM. The Emax (Human skMC; [5]) was 96%, the EC50 (Human skMC; listed as Compound A (R)) was 0.7 nM and the EC50 (β2 AR) was 5.6 nM. For the same compound, the Emax (β2 AR) was 88%, the EC50 (β1 AR) was 560 nM and the Emax (β1 AR) was 32%. The “intrinsic efficacy on β1 AR” value (β1 AR; summary in words) was “very low intrinsic efficacy”, the EC50 (Adrenergic beta1; guinea pig left atria, n=2) was greater than 10000 nM and the “effects on left atrium contraction” value (Adrenergic beta1; up to 10 µM) was “no effects”. For the same compound, the skeletal muscle hypertrophy ([4]; 0.01 mg/kg/day s.c. minipump, 28 days, significant) was 11%, the heart histopathology ([4]; even at 0.1 mg/kg/day s.c. minipump, 28 days) was “no findings” and the “skeletal muscle mass and heart mass increase (Figure 1)” value ([4]; s.c. minipump 28 days, formoterol 0.003-0.03, Compound A 0.01-0.1 mg/kg/day) was “induces skeletal muscle hypertrophy with minimum impact on heart mass”. For the same compound, the heart rate change (Rhesus monkeys) was “less heart rate increase compared to formoterol”, the EC50 (Rat skMC; Myotube, read-out: Primary cells, cAMP response EC50 Rat skMC) was 3.4 nM and the Emax (Rat skMC; read-out: Primary cells, cAMP response Emax % Rat skMC) was 98%.
With `CC(=O)O.CCCCOc1ccc(CC(C)(C)NC[C@H](O)c2cc(O)cc3[nH]c(=O)sc23)cc1` [Compound A (R) acetate salt, (R)-7-(2-(1-(4-butoxyphenyl)-2-methylpropan-2-ylamino)-1-hydroxyethyl)-5-hydroxybenzo[d]thiazol-2(3H)-one acetate salt] the solubility ([1]; aqueous buffer, pH 6.0) was 1110 µg/mL, the solubility ([1]; pH 5.9, aqueous buffer) was 1330 µg/mL and the solubility ([1]; pH 6.1, aqueous buffer) was 1100 µg/mL. The solubility ([1]; pH 6.2, aqueous buffer) was 550 µg/mL, the Emax (Human skMC; Homo sapiens, Myotube, compared to isoprenaline) was 93% and the EC50 (Human skMC; acetate salt) was 1.7 nM. For the same compound, the EC50 (β2 AR) was 2.5 nM.
`CCCCOc1ccc(CC(C)(C)NC[C@H](O)c2cc(O)cc3[nH]c(=O)sc23)cc1.O=C(O)CO` [Compound A glycolate salt, (R)-7-(2-(1-(4-butoxyphenyl)-2-methylpropan-2-ylamino)-1-hydroxyethyl)-5-hydroxybenzo[d]thiazol-2(3H)-one glycolate salt] showed a solubility ([1]; pH 5.1, aqueous buffer) of 13100 µg/mL, a solubility ([1]; pH 5.3, aqueous buffer) of 6390 µg/mL and a solubility ([1]; pH 5.4, aqueous buffer) of 4470 µg/mL.
